Source: patent US11708366B2, “Heteroaryl substituted spiropiperidinyl derivatives and pharmaceutical uses thereof” (Novartis AG, priority 2020, dated 2023)

Experiments:
LTC4S [1] = target: T1, LTC4S (Homo sapiens (Human), UniProt Q16873); experiment: Human LTC4S enzymatic assay (HTRF detection of LTC4-Me); format: biochemical; conditions: 0.75 nM enzyme, 400 μM GSH, 5 μM LTA4-Me, 15 min pre-incubation; read-out: human LTC4S IC50 (enzymatic assay)
Method: A. Human LTC4S Enzymatic Assay:
LTC4 synthase catalyzes the conversion of Leukotriene A4 (LTA4) to Leukotriene C4 (LTC4) in the presence of reduced glutathione (GSH) as a co-substrate. For compound testing, compounds are delivered as 10 mM stock solutions in 90% DMSO in matrix tubes. From this, a 1:3 dilution dose response series is prepared with a starting concentration of 30 μM to 0.1 nM. For the enzymatic assay 97.5 nL of compound/DMSO solution is transferred to each well and 5 μL enzyme solution (assay buffer: 50 mM bis-tris propane pH 7.3, 250 mM NaCl, 10 mM MgCl2, 0.001% MGN3) is added to the wells. […] The enzyme compound mixture is incubated at room temperature for 15 minutes prior to the addition of 5 μL substrate solution. […] A final substrate concentration of 400 μM GSH and 5 μM LTA4-Me is chosen.
The LTA4-Me is obtained commercially in 2% triethylamine/hexane solvent. As this solvent is incompatible with the HTRF assay it has to be exchanged with DMSO according to following procedure: add 50 μL of 100% DMSO to 50 μL LTA4-Me (3 mM) in a 2 mL Eppendorf tube and mix gently by inverting the tube. The triethylamine/hexane is evaporated under a constant argon flux at room temperature. The DMSO-LTA4-Me (3 mM) is aliquoted and stored at −20° C. for not longer than 4 weeks, as it is not stable in DMSO due to its oxidizing properties.
Upon addition of the substrate, the plate is immediately placed on a shaker for 5 min at room temperature. Immediately after the 5 min incubation 5 μL of H2O2 solution is added to all wells to stop the reaction. The plate contents are mixed before the addition of detection reagents. […] For the detection of the product of the enzymatic reaction LTC4-Me, the Cisbio LTC4-HTRF kit is used as the assay is compatible with the detection of LTC4-Me. 5 μL of diluted LTC4-d2 conjugate (according to manufacturer's protocol) are added to all wells of the assay plate and the contents gently mixed and incubated for 5 minutes at room temperature. […] The percent inhibition for each point of an inhibition curve is calculated after data interpolation using the LTC4-Me standard curve, to convert the HTRF signal to the amount of LTC4-Me produced within the LTC4S catalyzed reaction on each plate. The data is analyzed using parametric curve fitting to determine IC50 values of LTC4S inhibitors.

LTC4S [2] = target: T1, LTC4S; experiment: Human whole blood HTRF assay (LTC4 release after calcium ionophore A23187); format: cell-based; conditions: human whole blood diluted 1:3, 4 h incubation, calcium ionophore A23187 stimulation, LTC4 by HTRF; read-out: human whole blood HTRF IC50

Row | Compound | IC50 (LTC4S [1]) | IC50 (LTC4S [2])
1 | O=C1CCCC2(CCN(c3nsc(N4CCCC4)n3)CC2)N1c1ccc(Cl)c(F)c1 [Example 25, 1-(4-chloro-3-fluorophenyl)-9-(5-(pyrrolidin-1-yl)-1,2,4-thiadiazol-3-yl)-1,9-diazaspiro[5.5]undecan-2-one] | 62 nM | 170 nM
2 | O=C1CCCC2(CCN(c3ncnc(N4CC(C(F)(F)F)C4)c3F)CC2)N1c1ccc(Cl)c(F)c1 [Example 37, 1-(4-chloro-3-fluorophenyl)-9-(5-fluoro-6-(3-(trifluoromethyl)azetidin-1-yl)pyrimidin-4-yl)-1,9-diazaspiro[5.5]undecan-2-one] | 12 nM | 120 nM
3 | O=C1CCCC2(CCN(c3ccn4nc(C(F)(F)F)cc4n3)CC2)N1c1ccc(Cl)c(F)c1 [Example 5, 1-(4-chloro-3-fluorophenyl)-9-(2-(trifluoromethyl)pyrazolo[1,5-a]pyrimidin-5-yl)-1,9-diazaspiro[5.5]undecan-2-one] | 5 nM | 10 nM
4 | 1-(4-chloro-3-fluorophenyl)-9-(5-((1R,2R)-2-(trifluoromethyl)cyclopropyl)-1,2,4-oxadiazol-3-yl)-1,9-diazaspiro[5.5]undecan-2-one, or 1-(4-chloro-3-fluorophenyl)-9-(5-((1S,2S)-2-(trifluoromethyl)cyclopropyl)-1,2,4-oxadiazol-3-yl)-1,9-diazaspiro[5.5]undecan-2-one [Example 6a] | 190 nM | 310 nM
5 | O=C1CCCC2(CCN(c3nccc(C(F)(F)F)n3)CC2)N1c1ccc(Cl)c(F)c1 [Example 3, 1-(4-chloro-3-fluorophenyl)-9-(4-(trifluoromethyl)pyrimidin-2-yl)-1,9-diazaspiro[5.5]undecan-2-one] | 8 nM | 180 nM
6 | O=C1CCCC2(CCN(c3noc(C45CC(C(F)(F)F)(C4)C5)n3)CC2)N1c1ccc(Cl)c(F)c1 [Example 7, 1-(4-chloro-3-fluorophenyl)-9-(5-(3-(trifluoromethyl)bicyclo[1.1.1]pentan-1-yl)-1,2,4-oxadiazol-3-yl)-1,9-diazaspiro[5.5]undecan-2-one] | 76 nM | 100 nM
7 | O=C1CCCC2(CCN(c3ncc(C4CCCCC4)o3)CC2)N1c1ccc(Cl)c(F)c1 [Example 27, 1-(4-chloro-3-fluorophenyl)-9-(5-cyclohexyloxazol-2-yl)-1,9-diazaspiro[5.5]undecan-2-one] | 25 nM | 59 nM
8 | O=C1CCCC2(CCN(c3nnc(-c4ccccc4)o3)CC2)N1c1ccc(Cl)c(F)c1 [Example 28, 1-(4-chloro-3-fluorophenyl)-9-(5-phenyl-1,3,4-oxadiazol-2-yl)-1,9-diazaspiro[5.5]undecan-2-one] | 110 nM | 450 nM
9 | O=C1CCCC2(CCN(c3cc(OCC(F)(F)F)ccn3)CC2)N1c1ccc(Cl)c(F)c1 [Example 81, 1-(4-chloro-3-fluorophenyl)-9-(4-(2,2,2-trifluoroethoxy)pyridin-2-yl)-1,9-diazaspiro[5.5]undecan-2-one] | 13 nM | 72 nM
10 | O=C1CCCC2(CCN(c3ncn(-c4ccc(F)cc4)n3)CC2)N1c1ccc(Cl)c(F)c1 [Example 1, 1-(4-chloro-3-fluorophenyl)-9-(1-(4-fluorophenyl)-1H-1,2,4-triazol-3-yl)-1,9-diazaspiro[5.5]undecan-2-one] | 6 nM | 13 nM
11 | O=C1CCCC2(CCN(c3ncnc(N4CCCC4)n3)CC2)N1c1ccc(Cl)c(F)c1 [Example 38, 1-(4-chloro-3-fluorophenyl)-9-(4-(pyrrolidin-1-yl)-1,3,5-triazin-2-yl)-1,9-diazaspiro[5.5]undecan-2-one] | 8 nM | 86 nM
12 | O=C1CCCC2(CCN(c3cc(OCC(F)F)ncn3)CC2)N1c1ccc(Cl)c(F)c1 [Example 84, 1-(4-chloro-3-fluorophenyl)-9-(6-(2,2-difluoroethoxy)pyrimidin-4-yl)-1,9-diazaspiro[5.5]undecan-2-one] | 8 nM | 9 nM
13 | O=C1CCCC2(CCN(c3ncc(-c4ccc(F)cc4)o3)CC2)N1c1ccc(Cl)c(F)c1 [Example 21, 1-(4-chloro-3-fluorophenyl)-9-(5-(4-fluorophenyl)oxazol-2-yl)-1,9-diazaspiro[5.5]undecan-2-one] | 4 nM | 7 nM
14 | O=C1CCCC2(CCN(c3nsc(N4CC(C(F)(F)F)C4)n3)CC2)N1c1ccc(Cl)c(F)c1 [Example 24, 1-(4-chloro-3-fluorophenyl)-9-(5-(3-(trifluoromethyl)azetidin-1-yl)-1,2,4-thiadiazol-3-yl)-1,9-diazaspiro[5.5]undecan-2-one] | 33 nM | 110 nM
15 | O=C1CCCC2(CCN(c3cc(-c4ccc(F)cc4)cc[n+]3[O-])CC2)N1c1ccc(Cl)c(F)c1 [Example 33, 2-(1-(4-chloro-3-fluorophenyl)-2-oxo-1,9-diazaspiro[5.5]undecan-9-yl)-4-(4-fluorophenyl)pyridine 1-oxide] | 24 nM | 56 nM
16 | O=C1CCCC2(CCN(c3cnn(-c4ccc(F)cc4)n3)CC2)N1c1ccc(Cl)c(F)c1 [Example 31, 1-(4-chloro-3-fluorophenyl)-9-(2-(4-fluorophenyl)-2H-1,2,3-triazol-4-yl)-1,9-diazaspiro[5.5]undecan-2-one] | 15 nM | 120 nM
17 | O=C1CCCC2(CCN(c3nncc(C4CCCC4)n3)CC2)N1c1ccc(Cl)c(F)c1 [Example 20, 1-(4-chloro-3-fluorophenyl)-9-(5-cyclopentyl-1,2,4-triazin-3-yl)-1,9-diazaspiro[5.5]undecan-2-one] | 12 nM | 64 nM
18 | Cn1cc(-c2ccc(F)cc2)nc(N2CCC3(CCCC(=O)N3c3ccc(Cl)c(F)c3)CC2)c1=O [Example 9, 1-(4-chloro-3-fluorophenyl)-9-(6-(4-fluorophenyl)-4-methyl-3-oxo-3,4-dihydropyrazin-2-yl)-1,9-diazaspiro[5.5]undecan-2-one] | 2 nM | 48 nM
19 | O=C1CCCC2(CCN(c3ncnc(N4CCCC4)c3F)CC2)N1c1ccc(Cl)c(F)c1 [Example 36, 1-(4-chloro-3-fluorophenyl)-9-(5-fluoro-6-(pyrrolidin-1-yl)pyrimidin-4-yl)-1,9-diazaspiro[5.5]undecan-2-one] | 6 nM | 44 nM
